Assay results reported in US7122570B2, “Tetrahydrocarbazol derivatives as ligands for G-protein-coupled receptors (GPCR)” (Zentaris AG, priority 2001, dated 2006).
pIC50: −log10 of the molar value.

Experiments:
hGnRH-Receptor = biological target: T1, hGnRH-Receptor (Homo sapiens, UniProt P30968); experiment: GnRH receptor assay: competition binding with 125I-labeled buserelin on cell membranes; details: competition with 125I-buserelin
T1 construct: expressed in transfected cells; host or cells: CHO-3 cells (Schmid et al., J. Biol. Chem. 275 (2000), 9193-9200), membrane preparation
T1 sequence (P30968 1-328): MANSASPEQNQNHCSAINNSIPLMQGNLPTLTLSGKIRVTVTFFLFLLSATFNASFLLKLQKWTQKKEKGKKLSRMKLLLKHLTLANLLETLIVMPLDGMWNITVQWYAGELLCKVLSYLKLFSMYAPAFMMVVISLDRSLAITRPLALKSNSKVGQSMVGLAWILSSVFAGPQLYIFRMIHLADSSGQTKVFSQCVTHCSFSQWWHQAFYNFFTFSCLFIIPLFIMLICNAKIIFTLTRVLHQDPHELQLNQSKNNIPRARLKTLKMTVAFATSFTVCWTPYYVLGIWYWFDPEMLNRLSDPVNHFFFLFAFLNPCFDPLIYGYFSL
Protocol: Buserelin is ordered from Welding (Frankfurt/Main, Germany). The compound is labeled with ^125I by use of the chloramine T-method and Na^125I (4000 Ci/mmol; Amersham-Buchler, Brunswick, Germany). The labeled substance is purified by reverse phase HPLC on a Spherisorb ODS II column (250×4 mm, particle size 3 μm) by elution with 50% acetonitrile/0.15% trifluoroacetic acid at a flow rate of 0.5 ml/minute. The specific activity is 2000 Ci/mmol.
Alpha T3-1 cells (Bilezikjian et al., Mol. Endocrinol 5 (1991), 347–355) are cultivated in DMEM medium (Gibco-BRL, Eggenstein-Leopoldshafen, Germany) with penicillin (100 I.U./ml), streptomycin (0.1 mg/ml) and glutamine (0.01 mol/l) and 10% fetal calf serum (FCS; PAA Laboratories, Coelbe, Germany) on plastic tissue culture plates (Nunc, 245×245×20 mm). CHO-3 cells (Schmid et al., J. Biol. Chem. 275 (2000), 9193–9200) are cultivated under identical conditions, apart from the fact that Ham's F12 medium (Gibco-BRL) is used.
Ten confluent cell culture plates are flushed twice with 50 ml of phosphate-buffered salt solution (PBS). The cells are harvested by scraping them off with a rubber scraper in 5 ml of PBS and sedimented by centrifuging in a laboratory centrifuge (Heraeus) at 800 rpm for 10 minutes. The cell pellet is resuspended in 5 ml of 0.25 mol/l of saccharose/0.01 mol/l of triethanolamine, pH 7.4. The cells are lysed by three cycles of freezing in dry ice/ethanol bath and thawing at room temperature. The lysate is centrifuged at 900 rpm for 10 minutes, and the sediment is discarded. The supernatant is centrifuged at 18,000 rpm in a Sorvall SS34 rotor for 30 minutes. The pellet (cell membranes) is suspended by Potters in 5 ml of assay buffer (0.25 mol/l of saccharose, 0.01 mol/l of triethanolamine, pH 7.5, 1 mg/ml of ovalbumin) and stored in 200 μl of aliquots at −20° C. The determination of protein is carried out according to the Bradford method (Anal. Biochem. 72 (1976), 248–254).
Binding studies for competition curves are performed as triplicates. A test sample contains 60 μl of cell membrane suspension (10 μg of protein for αT3-1 cells or 40 μg of protein for CHO3 cells), 20 μl of ^125I-labeled buserelin (100,000 Ipm per sample for competition curves and between 1,500 and 200,000 Ipm for saturation experiments) and 20 μl of test buffer or test compound solution. The test compounds are dissolved in distilled water or 50% ethanol. Serial dilutions (5×10^−6 mol/l to […]) are produced in test buffer. The unspecific binding is determined in the presence of excess unlabeled buserelin (10^−6 mol/1). The test samples are incubated for 30 minutes at room temperature. Bonded and free ligands are separated by filtration (Whatman GF/C-filter, 2.5 cm diameter) with use of an Amicon 10x collecting device and washed twice with 5 ml of 0.02 mol/l of Tris/HCl, pH 7.4. The filters are moistened with 0.3% polyethylenimine (Serva; Heidelberg, Germany) for 30 minutes to reduce the unspecific binding. The radioactivity that was held up by the filter is determined in a 5-channel gamma-counter (Wallac-LKB 1470 Wizard).
In the table below, the IC50 values that are obtained for the preferred compounds, as defined above, are indicated.

GnRH receptor = biological target: T2, GnRH receptor (Homo sapiens, UniProt P30968); experiment: Ca2+ release, human; assay type: cell-based; details: read-out: Ca^2+ Release Human IC50
T2 sequence (P30968 1-328): T1 sequence (P30968 1-328)

Compound	pIC50 (hGnRH-Receptor)	pIC50 (GnRH receptor)
CC[C@H](C)[C@H](NC(=O)OCc1ccccc1)C(=O)N[C@]1(C(=O)N[C@H](C(=O)Nc2ccc(C(N)=O)cc2)C(C)C)CCc2[nH]c3ccccc3c2C1 [Compound 45, Phenylmethyl [(1S,2S)-1-[[[(3R)-3-[[[(1S)-1-[[[4-(aminocarbonyl)phenyl]amino]carbonyl]-2-methylpropyl]amino]carbonyl]-2,3,4,9-tetrahydro-1H-carbazol-3-yl]amino]carbonyl]-2-methylbutyl]carbamate]	6.52	6.00
CC[C@H](C)[C@H](NC(=O)OCc1ccccc1)C(=O)N[C@]1(C(=O)N[C@H](C(N)=O)C(C)C)CCc2[nH]c3ccc(Cl)cc3c2C1 [Compound 148a, Phenylmethyl [(1S,2S)-1-[[[(3R)-3-[[[(1S)-1-(aminocarbonyl)-2-methylpropyl]amino]-carbonyl]-6-chloro-2,3,4,9-tetrahydro-1H-carbazol-3-yl]amino]carbonyl]-2-methylbutyl]carbamate]	7.10	6.85
CC[C@H](C)[C@H](NC(=O)OCc1ccccc1)C(=O)N[C@]1(C(=O)N[C@H](C(N)=O)C(C)C)CCc2[nH]c3c(C)cccc3c2C1 [Compound 150a, Phenylmethyl [(1S,2S)-1-[[[(3R)-3-[[[(1S)-1-(aminocarbonyl)-2-methylpropyl]amino]-carbonyl]-2,3,4,9-tetrahydro-8-methyl-1H-carbazol-3-yl]amino]carbonyl]-2-methylbutyl]carbamate]	6.96	6.55
CC(C)C(NC(=O)C1(NC(=O)Cc2ccc3ccccc3c2)CCc2[nH]c3ccccc3c2C1)C(N)=O [Compound 161b, (3S)-N-[(1S)-1-(Aminocarbonyl)-2-methyl-propyl]-2,3,4,9-tetrahydro-3-[(2-naphthalenyl-acetyl)amino]-1H-carbazole-3-carboxamide]	5.43	5.44
CC(C)[C@H](NC(=O)[C@@]1(NC(=O)Cc2ccc(Cl)cc2)CCc2[nH]c3ccccc3c2C1)C(N)=O [Compound 167a, (3R)-N-[(1S)-1-(Aminocarbonyl)-2-methyl-propyl]-3-[[(4-chlorophenyl)acetyl]amino]-2,3,4,9-tetrahydro-1H-carbazole-3-carboxamide]	6.00	5.59
COc1ccc(CC(=O)NC2(C(=O)N[C@H](C(N)=O)C(C)C)CCc3[nH]c4ccccc4c3C2)cc1 (stereo partly drawn) [Compound 175, N-[(1S)-1-(Aminocarbonyl)-2-methylpropyl]-2,3,4,9-tetrahydro-3-[[(4-methoxyphenyl)-acetyl]amino]-1H-carbazole-3-carboxamide]	5.10	5.74
CC[C@H](C)[C@H](NC(=O)OCc1ccccc1)C(=O)N[C@]1(C(=O)N2CCC[C@H]2C(N)=O)CCc2[nH]c3ccccc3c2C1 [Compound 181a, Phenylmethyl [(1S,2S)-1-[[[(3R)-3-[[(2S)-2-(aminocarbonyl)-1-pyrrolidinyl]carbonyl]-2,3,4,9-tetrahydro-1H-carbazol-3-yl]amino]-carbonyl]-2-methylbutyl]carbamate]	6.15	5.52

More lines, in order of rising pIC50 (hGnRH-Receptor), values ahead:

pIC50 (hGnRH-Receptor)	pIC50 (GnRH receptor)	Compound
5.22	5.19	CC(C)[C@H](NC(=O)[C@]1(NC(=O)Cc2c[nH]c3ccccc23)CCc2[nH]c3ccccc3c2C1)C(N)=O [Compound 164b, (3S)-N-[(1S)-1-(Aminocarbonyl)-2-methyl-propyl]-2,3,4,9-tetrahydro-3-[(1H-indol-3-yl-acetyl)amino]-1H-carbazole-3-carboxamide]
5.40	5.52	CC(C)[C@H](NC(=O)[C@@]1(NC(=O)Cc2cccc(Br)c2)CCc2[nH]c3ccccc3c2C1)C(N)=O [Compound 96, (3R)-N-[(1S)-1-(Aminocarbonyl)-2-methyl-propyl]-3-[[(3-bromophenyl)acetyl]-amino]-2,3,4,9-tetrahydro-1H-carbazole-3-carboxamide]
5.62	5.70	CC(C)[C@H](NC(=O)[C@@]1(NC(=O)Cc2ccc(F)cc2)CCc2[nH]c3ccccc3c2C1)C(N)=O [Compound 91, (3R)-N-[(1S)-1-(Aminocarbonyl)-2-methyl-propyl]-3-[[(4-fluorophenyl)acetyl]amino]-2,3,4,9-tetrahydro-1H-carbazole-3-carboxamide]
5.70	6.00	CC[C@H](C)[C@H](NC(=O)CCc1ccccc1)C(=O)N[C@]1(C(=O)N[C@H](C(=O)N[C@@H](CC(N)=O)C(N)=O)C(C)C)CCc2[nH]c3ccccc3c2C1 [Compound 22, N-[[(3R)-2,3,4,9-Tetrahydro-3-[[(2S,3S)-3-methyl-1-oxo-2-[(1-oxo-3-phenylpropyl)amino]-pentyl]amino]-1H-carbazol-3-yl]carbonyl]-L-valyl-L-aspartamide]
5.77	5.82	CC[C@H](C)[C@H](NC(=O)[C@@]1(NC(=O)[C@@H](NC(=O)OCc2ccccc2)[C@@H](C)CC)CCc2[nH]c3ccccc3c2C1)C(N)=O [Compound 64, Phenylmethyl [(1S,2S)-1-[[[(3R)-3-[[[(1S,2S)-1-(aminocarbonyl)-2-methylbutyl]amino]-carbonyl]-2,3,4,9-tetrahydro-1H-carbazol-3-yl]-amino]carbonyl]-2-methylbutyl]carbamate]
6.05	5.30	CC(C)C(NC(=O)C1(NC(=O)C(Cc2ccccc2)c2ccccc2)CCc2[nH]c3ccccc3c2C1)C(=O)NC(CC(N)=O)C(N)=O [Compound 18, N-[[(3R)-2,3,4,9-Tetrahydro-3-[(1-oxo-2,3-diphenyl-propyl)amino]-1H-carbaol-3-yl]-carbonyl]-L-valyl-L-aspartamide]
6.52	6.43	CC[C@H](C)[C@H](NC(=O)OCc1ccccc1)C(=O)N[C@]1(C(=O)N[C@H](C(N)=O)C(C)C)CCc2[nH]c3ccccc3c2C1 [Compound 58, Phenylmethyl [(1S,2S)-1-[[[(3R)-3-[[[(1S)-1-(aminocarbonyl)-2-methylpropyl]amino]-carbonyl]-2,3,4,9-tetrahydro-1H-carbazol-3-yl]-amino]carbonyl]-2-methylbutyl]carbamate]
7.12	6.60	CC[C@H](C)[C@H](NC(=O)OCc1ccccc1)C(=O)N[C@]1(C(=O)N[C@H](C(N)=O)C(C)C)CCc2[nH]c3c(OC)cccc3c2C1 [Compound 147a, Phenylmethyl [(1S,2S)-1-[[[(3R)-3-[[[(1S)-1-(aminocarbonyl)-2-methypropyl]amino]-carbonyl]-2,3,4,9-tetrahydro-8-methoxy-1H-carbazol-3-yl]amino]carbonyl]-2-methylbutyl]carbamate]
7.82	7.35	CC[C@H](C)[C@H](NC(=O)OCc1ccccc1)C(=O)N[C@]1(C(=O)N[C@H](C(N)=O)C(C)C)CCc2[nH]c3c(Cl)cc(Cl)cc3c2C1 [Compound 184a, Phenylmethyl [(1S,2S)-1-[[[(3R)-3-[[[(1S)-1-(aminocarbonyl)-2-methylpropyl]amino]-carbonyl]-6,8-dichloro-2,3,4,9-tetrahydro-1H-carbazol-3-yl]amino]carbonyl]-2-methylbutyl]-carbamate]
